Here are results for 1 compound from publication PMC3543868 (Cell reports, 2012).

The target in this assay is GroEL in complex with its cofactor GroES (Escherichia coli, UniProt P0A6F5). Particulars: with GroES (singly capped); no AlFx; labelled compound.

Each structure is given as a SMILES string.

Sequence of GroEL in complex with its cofactor GroES (P0A6F5 2-548): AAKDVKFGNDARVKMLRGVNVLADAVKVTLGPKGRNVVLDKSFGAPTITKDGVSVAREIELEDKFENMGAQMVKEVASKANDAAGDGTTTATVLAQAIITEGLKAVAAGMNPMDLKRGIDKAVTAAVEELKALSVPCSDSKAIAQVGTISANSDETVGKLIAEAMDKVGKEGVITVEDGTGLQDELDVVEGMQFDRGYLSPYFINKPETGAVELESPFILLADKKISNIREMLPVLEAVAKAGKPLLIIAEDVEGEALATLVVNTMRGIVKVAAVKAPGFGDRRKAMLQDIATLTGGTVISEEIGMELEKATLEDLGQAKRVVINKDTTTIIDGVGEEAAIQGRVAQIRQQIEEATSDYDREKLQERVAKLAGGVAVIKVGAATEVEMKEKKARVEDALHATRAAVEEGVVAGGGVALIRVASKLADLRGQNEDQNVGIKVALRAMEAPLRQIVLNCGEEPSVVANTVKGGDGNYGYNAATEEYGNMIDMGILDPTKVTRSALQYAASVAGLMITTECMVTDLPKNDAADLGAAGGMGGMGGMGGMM
Sequence of GroEL in complex with its cofactor GroES (P0A6F9 whole entry, further chain): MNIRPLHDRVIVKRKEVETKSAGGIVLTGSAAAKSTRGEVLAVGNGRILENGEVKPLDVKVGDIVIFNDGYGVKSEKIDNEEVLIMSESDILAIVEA

For the compound `Nc1ncnc2c1ncn2[C@@H]1O[C@H](COP(=O)(O)OP(=O)(O)OP(=O)(O)O)[C@@H](O)[C@H]1O` [ATP], the “nucleotides per GroEL 14-mer” value is ~ 7 nucleotides per GroEL 14-mer.
